Results published in patent publication US20220033397A1, “PHARMACEUTICAL COMPOUNDS AND THEIR USE AS INHIBITORS OF UBIQUITIN SPECIFIC PROTEASE 19 (USP19)” (ALMAC DISCOVERY LIMITED, priority 2018, published 2022).

The compounds below were run against T1, Full-length USP19 (Homo sapiens, UniProt O94966) (assay: USP19 fluorescence polarisation (FP) homogeneous assay with Ubiquitin-Lys-TAMRA substrate). Conditions: 2.5 nM USP19, 30 min pre-incubation, average of at least two duplicate experiments.
T1 construct: Full-length USP19 was purchased from Boston Biochem (E-576); purchased Boston Biochem E-576
T1 sequence (O94966 1-1318): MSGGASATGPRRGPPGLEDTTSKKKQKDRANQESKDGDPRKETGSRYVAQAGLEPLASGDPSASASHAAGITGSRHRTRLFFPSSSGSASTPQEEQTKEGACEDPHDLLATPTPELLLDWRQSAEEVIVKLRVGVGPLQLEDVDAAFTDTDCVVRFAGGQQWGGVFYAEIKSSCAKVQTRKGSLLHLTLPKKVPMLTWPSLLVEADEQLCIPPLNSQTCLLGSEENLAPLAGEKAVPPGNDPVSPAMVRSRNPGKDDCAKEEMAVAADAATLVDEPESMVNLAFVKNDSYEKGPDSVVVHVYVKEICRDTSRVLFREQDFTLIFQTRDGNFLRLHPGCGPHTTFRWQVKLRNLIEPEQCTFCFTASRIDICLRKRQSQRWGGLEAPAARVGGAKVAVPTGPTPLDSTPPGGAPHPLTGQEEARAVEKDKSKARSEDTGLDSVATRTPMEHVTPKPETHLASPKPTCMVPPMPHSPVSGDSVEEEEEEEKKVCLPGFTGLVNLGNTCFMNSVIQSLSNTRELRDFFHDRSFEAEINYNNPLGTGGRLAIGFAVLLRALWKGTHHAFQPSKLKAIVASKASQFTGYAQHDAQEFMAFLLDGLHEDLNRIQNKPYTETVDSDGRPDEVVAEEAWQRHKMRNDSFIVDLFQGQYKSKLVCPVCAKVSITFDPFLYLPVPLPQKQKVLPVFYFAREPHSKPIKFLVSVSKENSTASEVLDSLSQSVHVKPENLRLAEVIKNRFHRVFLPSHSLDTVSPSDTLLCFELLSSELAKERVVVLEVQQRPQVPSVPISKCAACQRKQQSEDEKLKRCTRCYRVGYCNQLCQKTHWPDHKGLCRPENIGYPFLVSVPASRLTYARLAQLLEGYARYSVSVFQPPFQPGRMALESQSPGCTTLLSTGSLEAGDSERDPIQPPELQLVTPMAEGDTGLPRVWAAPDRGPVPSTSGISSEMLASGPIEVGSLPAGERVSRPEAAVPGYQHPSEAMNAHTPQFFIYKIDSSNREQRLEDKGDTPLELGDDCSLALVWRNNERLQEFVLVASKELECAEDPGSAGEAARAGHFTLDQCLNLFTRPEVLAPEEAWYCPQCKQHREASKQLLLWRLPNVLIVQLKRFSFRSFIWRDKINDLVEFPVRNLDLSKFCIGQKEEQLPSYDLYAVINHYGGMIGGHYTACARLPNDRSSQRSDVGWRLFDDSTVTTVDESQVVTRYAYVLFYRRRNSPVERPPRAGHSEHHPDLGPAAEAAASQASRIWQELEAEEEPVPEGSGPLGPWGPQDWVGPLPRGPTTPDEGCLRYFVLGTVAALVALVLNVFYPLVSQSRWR
Type: biochemical
Outline: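 Full-length USP19 preincubated 30 min at RT with inhibitor (200 μM to 2 μM series, 8–18 points) before adding 500 nM Ubiquitin-Lys-TAMRA substrate.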

Row | IC50 [µM] | SMILES
1 | 0.5 to 5 | C[C@H](CC1CCCCC1)C(=O)N1CCC(O)(Cn2cc(C(=O)N(C)C)c3ccccc3c2=O)C2(CCCC2)C1 (stereo partly drawn) [Example 145, 2-((7-((R)-3-Cyclohexyl-2-methylpropanoyl)-10-hydroxy-7-azaspiro[4.5]decan-10-yl)methyl)-N,N-dimethyl-1-oxo-1,2-dihydroisoquinoline-4-carboxamide]
2 | 0.5 to 5 | COc1cc2ccn(CC3(O)CCN(C(=O)[C@H](C)CC4CCCCC4)CC34CCCC4)c(=O)c2cc1OC (stereo partly drawn) [Example 146, 2-((7-((R)-3-Cyclohexyl-2-methylpropanoyl)-10-hydroxy-7-azaspiro[4.5]decan-10-yl)methyl)-6,7-dimethoxyisoquinolin-1(2H)-one]
3 | 0.5 to 5 | C[C@H](CC(F)(F)F)C(=O)N1CCC(O)(Cn2cnc3ccc(Cl)cc3c2=O)C2(CCCC2)C1 (stereo partly drawn) [Example 147, 6-Chloro-3-((10-hydroxy-7-((R)-4,4,4-trifluoro-2-methylbutanoyl)-7-azaspiro[4.5]decan-10-yl)methyl)quinazolin-4(3H)-one]
4 | 5 to 50 | C[C@H](CC(F)(F)F)C(=O)N1CCC(O)(Cn2cnc3ccc(F)cc3c2=O)C2(CCCC2)C1 (stereo partly drawn) [Example 148, 6-Fluoro-3-((10-hydroxy-7-((R)-4,4,4-trifluoro-2-methylbutanoyl)-7-azaspiro[4.5]decan-10-yl)methyl)quinazolin-4(3H)-one]
5 | 5 to 50 | C[C@H](CC(F)(F)F)C(=O)N1CCC(O)(Cn2cnc3cc(F)c(Cl)cc3c2=O)C2(CCCC2)C1 (stereo partly drawn) [Example 149, 6-Chloro-7-fluoro-3-((10-hydroxy-7-((R)-4,4,4-trifluoro-2-methylbutanoyl)-7-azaspiro[4.5]decan-10-yl)methyl)quinazolin-4(3H)-one]
6 | 50 to 250 | C[C@H](CC1CCCCC1)C(=O)N1CCC(O)(Cn2ccc3nccnc3c2=O)C2(CCCC2)C1 (stereo partly drawn) [Example 150, 6-((7-((R)-3-Cyclohexyl-2-methylpropanoyl)-10-hydroxy-7-azaspiro[4.5]decan-10-yl)methyl)pyrido[3,4-b]pyrazin-5(6H)-one]
7 | < 0.5 | C[C@H](CC1CCCCC1)C(=O)N1CCC(O)(Cn2cnc3cc(F)c(F)cc3c2=O)C2(CCCC2)C1 (stereo partly drawn) [Example 151, 3-((7-((R)-3-Cyclohexyl-2-methylpropanoyl)-10-hydroxy-7-azaspiro[4.5]decan-10-yl)methyl)-6,7-difluoroquinazolin-4(3H)-one]
8 | 50 to 250 | CCn1cc2c(=O)n(CC3(O)CCN(C(=O)[C@H](C)CC4CCCCC4)CC34CCCC4)cnc2n1 (stereo partly drawn) [Example 152, 5-((7-((R)-3-Cyclohexyl-2-methylpropanoyl)-10-hydroxy-7-azaspiro[4.5]decan-10-yl)methyl)-2-ethyl-2,5-dihydro-4H-pyrazolo[3,4-d]pyrimidin-4-one]
9 | 0.5 to 5 | Cc1nc2cnccc2c(=O)n1CC1(O)CCN(C(=O)[C@H](C)CC2CCCCC2)CC12CCCC2 (stereo partly drawn) [Example 153, 3-((7-((R)-3-Cyclohexyl-2-methylpropanoyl)-10-hydroxy-7-azaspiro[4.5]decan-10-yl)methyl)-2-methylpyrido[3,4-d]pyrimidin-4(3H)-one]
10 | < 0.5 | C[C@H](CC1CCCCC1)C(=O)N1CCC(O)(Cn2cnc3ccc(F)cc3c2=O)C2(CCCC2)C1 (stereo partly drawn) [Example 154, 3-((7-((R)-3-Cyclohexyl-2-methylpropanoyl)-10-hydroxy-7-azaspiro[4.5]decan-10-yl)methyl)-6-fluoroquinazolin-4(3H)-one]
11 | < 0.5 | C[C@H](CC1CCCCC1)C(=O)N1CCC(O)(Cn2cnc3cc(F)c(Cl)cc3c2=O)C2(CCCC2)C1 (stereo partly drawn) [Example 155, 6-Chloro-3-((7-((R)-3-cyclohexyl-2-methylpropanoyl)-10-hydroxy-7-azaspiro[4.5]decan-10-yl)methyl)-7-fluoroquinazolin-4(3H)-one]
12 | 5 to 50 | C[C@H](CC(F)(F)F)C(=O)N1CCC(O)(Cn2cnc3cc(F)ccc3c2=O)C2(CCCC2)C1 (stereo partly drawn) [Example 156, 7-Fluoro-3-((10-hydroxy-7-((R)-4,4,4-trifluoro-2-methylbutanoyl)-7-azaspiro[4.5]decan-10-yl)methyl)quinazolin-4(3H)-one]
13 | 0.5 to 5 | C[C@H](CC1CCCCC1)C(=O)N1CCC(O)(Cn2cnc3ccncc3c2=O)C2(CCCC2)C1 (stereo partly drawn) [Example 157, 3-((7-((R)-3-Cyclohexyl-2-methylpropanoyl)-10-hydroxy-7-azaspiro[4.5]decan-10-yl)methyl)pyrido[4,3-d]pyrimidin-4(3H)-one]
14 | 0.5 to 5 | C[C@H](CC1CCCCC1)C(=O)N1CCC(O)(Cn2ccc3ncncc3c2=O)C2(CCCC2)C1 (stereo partly drawn) [Example 158, 6-((7-((R)-3-Cyclohexyl-2-methylpropanoyl)-10-hydroxy-7-azaspiro[4.5]decan-10-yl)methyl)pyrido[4,3-d]pyrimidin-5(6H)-one]
15 | 5 to 50 | C[C@H](CC(F)(F)F)C(=O)N1CCC(O)(Cn2ccc3ncncc3c2=O)C2(CCCC2)C1 (stereo partly drawn) [Example 159, 6-((10-Hydroxy-7-((R)-4,4,4-trifluoro-2-methylbutanoyl)-7-azaspiro[4.5]decan-10-yl)methyl)pyrido[4,3-d]pyrimidin-5(6H)-one]
16 | < 0.5 | CSc1ncc2c(=O)n(CC3(O)CCN(C(=O)[C@H](C)CC4CCCCC4)CC34CCCC4)cnc2n1 (stereo partly drawn) [Example 160, 3-((7-((R)-3-Cyclohexyl-2-methylpropanoyl)-10-hydroxy-7-azaspiro[4.5]decan-10-yl)methyl)-7-(methylthio)pyrimido[4,5-d]pyrimidin-4(3H)-one]
17 | 0.5 to 5 | CSc1ncc2c(=O)n(CC3(O)CCN(C(=O)[C@H](C)CC(F)(F)F)CC34CCCC4)cnc2n1 (stereo partly drawn) [Example 161, 3-((10-Hydroxy-7-((R)-4,4,4-trifluoro-2-methylbutanoyl)-7-azaspiro[4.5]decan-10-yl)methyl)-7-(methylthio)pyrimido[4,5-d]pyrimidin-4(3H)-one]
18 | 0.5 to 5 | C[C@H](CC(F)(F)F)C(=O)N1CCC(O)(Cn2cnc3nc(N4CCOCC4)ncc3c2=O)C2(CCCC2)C1 (stereo partly drawn) [Example 162, 3-((10-Hydroxy-7-((R)-4,4,4-trifluoro-2-methylbutanoyl)-7-azaspiro[4.5]decan-10-yl)methyl)-7-morpholinopyrimido[4,5-d]pyrimidin-4(3H)-one]
19 | 0.5 to 5 | C[C@H](CC(F)(F)F)C(=O)N1CCC(O)(Cn2cnc3nc(N4CCN(C)CC4)ncc3c2=O)C2(CCCC2)C1 (stereo partly drawn) [Example 163, 3-((10-Hydroxy-7-((R)-4,44-trifluoro-2-methylbutanoyl)-7-azaspiro[4.5]decan-10-yl)methyl)-7-(4-methylpiperazin-1-yl)pyrimido[4,5-d]pyrimidin-4(3H)-one]
20 | < 0.5 | O=C(N1CCC(O)(Cn2cnc3ccc(F)cc3c2=O)C2(CCCC2)C1)N1CCOC[C@H]1c1ccccc1 (stereo partly drawn) [Example 164, 6-Fluoro-3-((10-Hydroxy-7-((R)-3-phenylmorpholine-4-carbonyl)-7-azaspiro[4.5]decan-10-yl)methyl)quinazolin-4(3H)-one]
21 | < 0.5 | O=C(N1CCC(O)(Cn2cnc3cc(F)c(F)cc3c2=O)C2(CCCC2)C1)N1CCOC[C@H]1c1ccccc1 (stereo partly drawn) [Example 165, 6,7-Difluoro-3-((10-hydroxy-7-((R)-3-phenylmorpholine-4-carbonyl)-7-azaspiro[4.5]decan-10-yl)methyl)quinazolin-4(3H)-one]
22 | 0.5 to 5 | O=C(N1CCC(O)(Cn2ccc3ccncc3c2=O)C2(CCCC2)C1)N1CCOC[C@H]1c1ccccc1 (stereo partly drawn) [Example 166, 2-((10-Hydroxy-7-((R)-3-phenylmorpholine-4-carbonyl)-7-azaspiro[4.5]decan-10-yl)methyl)-2,7-naphthyridin-1(2H)-one]
23 | 0.5 to 5 | O=C(N1CCC(O)(Cn2cnc3c(cnn3Cc3ccccc3)c2=O)C2(CCCC2)C1)N1CCOC[C@H]1c1ccccc1 (stereo partly drawn) [Example 167, 1-Benzyl-5-((10-hydroxy-7-((R)-3-phenylmorpholine-4-carbonyl)-7-azaspiro[4.5]decan-10-yl)methyl)-1,5-dihydro-4H-pyrazolo[3,4-d]pyrimidin-4-one]
